Laboratory results: the NIST ThermoML archive (doi:10.1016/j.jct.2019.03.007)

Assay: molar heat capacity at constant pressure
Settings: 101.33 kPa, DSC

O=[N+]([O-])[O-].O=[N+]([O-])[O-].[Ca+2] [calcium nitrate]
Settings	molar heat capacity at constant pressure [J/K/mol]
140.18 K, Crystal 2	107.65
141.18 K, Crystal 2	107.79
142.18 K, Crystal 2	107.93
143.18 K, Crystal 2	108.08
144.18 K, Crystal 2	108.26
145.18 K, Crystal 2	108.53
146.18 K, Crystal 2	108.77
147.18 K, Crystal 2	109.04
148.18 K, Crystal 2	109.41
149.18 K, Crystal 2	109.53
150.18 K, Crystal 2	109.66
151.18 K, Crystal 2	110.04
152.18 K, Crystal 2	110.2
153.18 K, Crystal 2	110.55
154.18 K, Crystal 2	110.68
155.18 K, Crystal 2	111.12
156.18 K, Crystal 2	111.45
157.18 K, Crystal 2	111.69
158.18 K, Crystal 2	111.99
159.18 K, Crystal 2	112.21
160.18 K, Crystal 2	112.56
161.18 K, Crystal 2	112.86
162.18 K, Crystal 2	113.24
163.18 K, Crystal 2	113.35
164.18 K, Crystal 2	113.45
165.18 K, Crystal 2	113.94
166.18 K, Crystal 2	114.12
167.18 K, Crystal 2	114.45
168.18 K, Crystal 2	114.73
169.18 K, Crystal 2	114.98
170.18 K, Crystal 2	115.36
171.18 K, Crystal 2	115.66
172.18 K, Crystal 2	116.1
173.18 K, Crystal 2	116.37
174.18 K, Crystal 2	116.66
175.18 K, Crystal 2	117.01
176.18 K, Crystal 2	117.33
177.18 K, Crystal 2	117.64
178.18 K, Crystal 2	117.92
179.18 K, Crystal 2	118.12
180.18 K, Crystal 2	118.62
181.18 K, Crystal 2	118.7
182.18 K, Crystal 2	119.16
183.18 K, Crystal 2	119.36
184.18 K, Crystal 2	119.66
185.18 K, Crystal 2	119.91
186.18 K, Crystal 2	120.23
187.18 K, Crystal 2	120.54
188.18 K, Crystal 2	120.8
189.18 K, Crystal 2	121.2
190.18 K, Crystal 2	121.32
191.18 K, Crystal 2	121.79
192.18 K, Crystal 2	122.02
193.18 K, Crystal 2	122.2
194.18 K, Crystal 2	122.58
195.18 K, Crystal 2	122.7
196.18 K, Crystal 2	123.1
197.18 K, Crystal 2	123.28
198.18 K, Crystal 2	123.48
199.18 K, Crystal 2	123.86
200.18 K, Crystal 2	123.94
201.18 K, Crystal 2	124.39
202.18 K, Crystal 2	124.62
203.18 K, Crystal 2	124.88
204.18 K, Crystal 2	125.24
205.18 K, Crystal 2	125.55
206.18 K, Crystal 2	125.8
207.18 K, Crystal 2	126.11
208.18 K, Crystal 2	126.43
209.18 K, Crystal 2	126.73
210.18 K, Crystal 2	126.95
211.18 K, Crystal 2	127.36
212.18 K, Crystal 2	127.6
213.18 K, Crystal 2	127.82
214.18 K, Crystal 2	128.19
215.18 K, Crystal 2	128.55
216.18 K, Crystal 2	128.82
217.18 K, Crystal 2	129.14
218.18 K, Crystal 2	129.41
219.18 K, Crystal 2	129.69
220.18 K, Crystal 2	129.91
221.18 K, Crystal 2	130.24
222.18 K, Crystal 2	130.55
223.18 K, Crystal 2	130.83
224.18 K, Crystal 2	131.03
225.18 K, Crystal 2	131.19
226.18 K, Crystal 2	131.52
227.18 K, Crystal 2	131.78
228.18 K, Crystal 2	132.06
229.18 K, Crystal 2	132.35
230.18 K, Crystal 2	132.6
231.18 K, Crystal 2	132.91
232.18 K, Crystal 2	133.16
233.18 K, Crystal 2	133.4
234.18 K, Crystal 2	133.66
235.18 K, Crystal 2	134.04
236.18 K, Crystal 2	134.28
237.18 K, Crystal 2	134.56
238.18 K, Crystal 2	134.67
239.18 K, Crystal 2	134.73
240.18 K, Crystal 2	134.88
241.18 K, Crystal 2	134.93
242.18 K, Crystal 2	135.27
243.18 K, Crystal 2	135.75
244.18 K, Crystal 2	136.33
245.18 K, Crystal 2	136.84
246.18 K, Crystal 2	137.21
247.18 K, Crystal 2	137.52
248.18 K, Crystal 2	137.79
249.18 K, Crystal 2	138.02
250.18 K, Crystal 2	138.35
251.18 K, Crystal 2	138.62
252.18 K, Crystal 2	138.99
253.18 K, Crystal 2	139.21
254.18 K, Crystal 2	139.61
255.18 K, Crystal 2	139.92
256.18 K, Crystal 2	140.17
257.18 K, Crystal 2	140.52
258.18 K, Crystal 2	140.74
259.18 K, Crystal 2	140.96
260.18 K, Crystal 2	141.24
261.18 K, Crystal 2	141.46
262.18 K, Crystal 2	141.71
263.18 K, Crystal 2	141.92
264.18 K, Crystal 2	142.15
265.18 K, Crystal 2	142.33
266.18 K, Crystal 2	142.65
267.18 K, Crystal 2	142.87
268.18 K, Crystal 2	143.14
269.18 K, Crystal 2	143.48
270.18 K, Crystal 2	143.75
271.18 K, Crystal 2	144.11
272.18 K, Crystal 2	144.39
273.18 K, Crystal 2	144.69
274.18 K, Crystal 2	145.05
275.18 K, Crystal 2	145.33
276.18 K, Crystal 2	145.65
277.18 K, Crystal 2	145.91
278.18 K, Crystal 2	146.15
279.18 K, Crystal 2	146.49
280.18 K, Crystal 2	146.74
281.18 K, Crystal 2	147.05
282.18 K, Crystal 2	147.32
283.18 K, Crystal 2	147.62
284.18 K, Crystal 2	148.05
285.18 K, Crystal 2	148.47
286.18 K, Crystal 2	149.01
287.18 K, Crystal 2	149.55
288.18 K, Crystal 2	150.15
289.18 K, Crystal 2	150.77
290.18 K, Crystal 1	151.37
291.18 K, Crystal 1	151.12
292.18 K, Crystal 1	150.21
293.18 K, Crystal 1	149.35
294.18 K, Crystal 1	148.69
295.18 K, Crystal 1	148.17
296.18 K, Crystal 1	147.88
297.18 K, Crystal 1	147.79
298.18 K, Crystal 1	147.74
299.18 K, Crystal 1	147.76
300.18 K, Crystal 1	147.88
301.18 K, Crystal 1	148.08
302.18 K, Crystal 1	148.34
303.18 K, Crystal 1	148.7
304.18 K, Crystal 1	149.02
305.18 K, Crystal 1	149.46
306.18 K, Crystal 1	149.88
307.18 K, Crystal 1	150.3
308.18 K, Crystal 1	150.74
309.18 K, Crystal 1	151.11
310.18 K, Crystal 1	151.52
311.18 K, Crystal 1	151.89
312.18 K, Crystal 1	152.28
313.18 K, Crystal 1	152.66
314.18 K, Crystal 1	153.07
315.18 K, Crystal 1	153.52
316.18 K, Crystal 1	153.88
317.18 K, Crystal 1	154.27
318.18 K, Crystal 1	154.64
319.18 K, Crystal 1	154.97
320.18 K, Crystal 1	155.32
321.18 K, Crystal 1	155.55
322.18 K, Crystal 1	155.81
323.18 K, Crystal 1	155.97
324.18 K, Crystal 1	156.09
325.18 K, Crystal 1	156.21
326.18 K, Crystal 1	156.25
327.18 K, Crystal 1	156.31
328.18 K, Crystal 1	156.31
328.78 K, Crystal 1	142.63
329.18 K, Crystal 1	156.34
329.78 K, Crystal 1	143.76
330.18 K, Crystal 1	156.4
330.78 K, Crystal 1	144.52
331.18 K, Crystal 1	156.44
331.78 K, Crystal 1	145.04
332.18 K, Crystal 1	156.55
332.78 K, Crystal 1	145.41
333.18 K, Crystal 1	156.64
333.78 K, Crystal 1	145.78
334.18 K, Crystal 1	156.71
334.78 K, Crystal 1	146.14
335.18 K, Crystal 1	156.85
335.78 K, Crystal 1	146.49
336.18 K, Crystal 1	156.94
336.78 K, Crystal 1	146.84
337.18 K, Crystal 1	157.08
337.78 K, Crystal 1	147.18
338.18 K, Crystal 1	157.1
338.78 K, Crystal 1	147.5
339.18 K, Crystal 1	157.13
339.78 K, Crystal 1	147.78
340.18 K, Crystal 1	157.13
340.78 K, Crystal 1	148.04
341.18 K, Crystal 1	157.22
341.78 K, Crystal 1	148.31
342.18 K, Crystal 1	157.26
342.78 K, Crystal 1	148.58
343.18 K, Crystal 1	157.38
343.78 K, Crystal 1	148.83
344.18 K, Crystal 1	157.49
344.78 K, Crystal 1	149.08
345.18 K, Crystal 1	157.55
345.78 K, Crystal 1	149.33
346.18 K, Crystal 1	157.7
346.78 K, Crystal 1	149.56
347.18 K, Crystal 1	157.84
347.78 K, Crystal 1	149.77
348.18 K, Crystal 1	158
348.78 K, Crystal 1	149.98
349.18 K, Crystal 1	158.16
349.78 K, Crystal 1	150.2
350.18 K, Crystal 1	158.3
350.78 K, Crystal 1	150.42
351.18 K, Crystal 1	158.39
351.78 K, Crystal 1	150.66
352.18 K, Crystal 1	158.48
352.78 K, Crystal 1	150.89
353.18 K, Crystal 1	158.58
353.78 K, Crystal 1	151.12
354.18 K, Crystal 1	158.8
354.78 K, Crystal 1	151.32
355.18 K, Crystal 1	158.94
355.78 K, Crystal 1	151.51
356.18 K, Crystal 1	159.08
356.78 K, Crystal 1	151.68
357.18 K, Crystal 1	159.2
357.78 K, Crystal 1	151.85
358.18 K, Crystal 1	159.38
358.78 K, Crystal 1	152.01
359.18 K, Crystal 1	159.61
359.78 K, Crystal 1	152.18
360.18 K, Crystal 1	159.81
360.78 K, Crystal 1	152.37
361.18 K, Crystal 1	160.09
